Target: SMYD2 (Homo sapiens, UniProt Q9NRG4)
Assay: scintillation proximity methyltransferase assay, 3H-methyl incorporation into p53 peptide ([…]), single […] dose
Format: biochemical

Chain of SMYD2 (Q9NRG4 whole entry): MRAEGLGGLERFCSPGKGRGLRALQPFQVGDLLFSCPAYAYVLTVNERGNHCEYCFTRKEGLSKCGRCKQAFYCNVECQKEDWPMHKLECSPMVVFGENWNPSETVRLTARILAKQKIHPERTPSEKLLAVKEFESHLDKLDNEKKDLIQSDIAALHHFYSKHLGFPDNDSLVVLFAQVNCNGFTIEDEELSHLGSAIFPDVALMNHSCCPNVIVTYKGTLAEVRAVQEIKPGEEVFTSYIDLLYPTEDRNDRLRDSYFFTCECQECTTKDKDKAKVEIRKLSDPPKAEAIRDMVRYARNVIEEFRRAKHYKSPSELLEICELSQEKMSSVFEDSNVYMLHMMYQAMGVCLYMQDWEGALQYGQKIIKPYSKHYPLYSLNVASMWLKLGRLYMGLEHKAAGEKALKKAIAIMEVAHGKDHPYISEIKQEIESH

- inhibition at 10 µM: 90.8%
Compound: C/C=C(/C=O)[C@@H](CC=O)CC(=O)OCCc1ccc(O)cc1 [OC, S-(-)-oleocanthal]
